Source: patent publication US11207331B2, “Agents, compositions and methods for enhancing neurological function” (University of Southern California, priority 2007, dated 2021)

What was measured:
hippocampal neurons = experiment: Total number of hippocampal neurons; assay type: cell-based, rat; conditions: primary hippocampal neurons
From the text: Having determined that THP increases the expression of the cell proliferating markers, a determination was sought as to whether the increase in cell proliferation markers translated into an increase in neuronal number. […] As shown in FIGS. 6A-6C, THP increases neuron number as assessed in MuLV-GFP infected mouse neurons. The effect of THP on HT-22 cells proliferation was detected on MuLV infected cells.

[1] = tested on: BrdU positive cells per hippocampus; experiment: Survival of BrdU labeled cells in hippocampus after behavioural testing; assay type: in vivo, mouse
Description: Mice of each genotype and age received a subcutaneous (s.c.) injection of THP at a concentration of 10 mg/kg body weight (BW), an optimal dose of THP-[…] based on our previous studies. One hour after THP injection, mice were intraperitoneally (i.p.) injected with 100 mg/kg BW bromodeoxyuridine (BrdU). Two experimental paradigms were used: 1) THP treatment for behavior and cell survival assessment, in which animals received a single shot of THP/vehicle, followed by a 7-day neurogenesis and migration phase, followed by a 5-day trace-conditioning test followed 9 days later by a 1-day memory test, and scarified 21 days after a single THP injection at which time FACS analysis of BrdU positive cells was performed to assess cell survival; 2).
Hippocampus was dissected from the fixed hemispheres from cell survival assessment experiment using consistent anatomical landmarks as criteria for dissection as described in the literature. The rostral ⅓ of the hippocampus lobe was removed to avoid the subventricular zone and rostral migratory stream proliferative pools. The extracted hippocampi were homogenized using Next advance 24 sample homogenizer (Next Advance Inc., NY) for 3 minutes on speed 7. This procedure lyses the plasma lemma while preserves the nuclear envelope intact. The nuclei sample was collected into a regular 1.5 mL microcentrifuge tube by washing the beads and tube 4 times using 200 μL of PBS, and then centrifuged for 10 minutes at 10,000 rpm. Once all of the nuclei were collected in a pellet, the supernatant was discarded. The pellet was then re-suspended in 600 μL of PBS plus 0.5% Triton x-100. The number of nuclear density was estimated by counting the propidium iodide (PI), a fluorescent molecule stoichiometrically binds to DNA by intercalating between the bases with no sequence preference, positive particles. Aliquots of 25 μl were re-suspended in 200 μL of a 0.2 M solution of boric acid, pH 9.0, and heated for 1 h at 75° C. for epitope retrieval. After washed in PBS, the nuclei were incubated for 24 hours at 4° C. with primary mouse monoclonal anti-BrdU antibody (1:100, Abcam, Ab12219) and subsequently with FITC-conjugated goat anti-mouse IgG secondary antibody (1:100 in PBS; Vector Labs, FI-2001). The remainder of cell suspension is diluted to 500 μL and sent for flow cytometry assay using Beckman FC 500 System with CXP Software. Propidium iodide (PI) cells were first gated on a histogram; the expressing cells were visualized on a forward/side scatter plot. PI cells were ‘back-gated’ on the forward/side scatter plot to eliminate debris prior to analysis; this also eliminated auto fluorescence of the sample. Gates were always set using dissociates with cell aliquots which lack of the first antibody, but which were incubated with second antibody and processed alongside the experimental procedure. PI-labeled cells in a fixed volume were gated, and the number of cells showing BrdU signal was analyzed. Data were expressed as total positive cells per hippocampus.
To determine whether cognitive performance was correlated with survival of neuroprogenitor cells, hippocampi from behavioral test animals were analyzed for total number of BrdU positive cells using fluorescence activated cell sorting (FACS). As BrdU was administered one hour post THP injection at the start of the behavioral experiment, FACS analysis detected the total number of surviving BrdU+ cells and thus can be used as a marker of neural progenitor cells that survived and integrated into the hippocampal neuronal network. In 6-months-old vehicle treated non-Tg mice, BrdU+ cell survival was 2003.6±229.5.
We sought to determine whether cell survival was directly attributable to THP exposure or whether cell survival was dependent on the training experience. Thus, the relationship between survival of BrdU positive cells and cognitive performance on the memory phase of the behavioral testing was analyzed. […]

phosphorylated tau = experiment: Phospho-tau immunoreactivity; assay type: in vivo, mouse
hippocampal neural cells = experiment: 3H-thymidine uptake in cultured hippocampal neural cells; assay type: cell-based, rat; conditions: from about 0.1 nm to about 250 nm THP
Description: Biochemical analyses of 3H-thymidine uptake, as a measure of DNA synthesis, were used as the experimental vehicle to confirm the morphological observations described in examples 1 and 2. […] Thus, the range for the neurogenic effect of THP on neural cells is quite is sensitive and quite broad.
For these experiments, cultured hippocampal neural cells, derived from embryonic day 18 rat fetuses, were allowed to adhere to polylysine coated plastic cover-slips for 40 min in serum containing medium. Following adhesion, neurons were exposed to […] 3H-thymidine in the presence or absence of 100-500 nM THP and allowed to incubate at 37° C. for 24 hours in the absence or presence of the indicated steroids. Data are expressed as mean+SEM, *p<. 05,**p<0.01, ***p<0.001.
The time course of THP-induced 3H-thymidine incorporation in hippocampal neuronal cells is shown in FIG. 9 where cultured hippocampal nerve cells, derived from embryonic day 18 rat fetuses, were allowed to adhere to polylysine coated plastic cover-slips for 40 min in serum containing medium. Following adhesion, serum containing medium in the presence or absence of 10-250 nM THP plus […] 3H-thymidine and allowed to incubate at 37 for 1, 8 or 24 hours. Data are expressed as mean±SEM, *p<0.05,**p<0.01,***p<0.001.

[2] = 3×Tg-AD mice, once a week for 6 months

With `CC(=O)[C@H]1CC[C@H]2[C@@H]3CC[C@H]4C[C@H](O)CC[C@]4(C)[C@H]3CC[C@]12C` [THP, 3α-hydroxy-5α-pregnan-20-one] the “increase in neuron number” value (hippocampal neurons) was “approximately 30%”, the “THP-induced proliferation (FACS BrdU) after 23 days of learning and memory” value ([1]; 3×TgAD mice, 3 and 6 month, declined with age thereafter) was “Significant THP-induced proliferation” and the “fold promotion of BrdU+ cell survival” value ([1]; 3×TgAD mice, 6-months-old) was “greater than 2 fold”. For the same compound, the “surviving BrdU+ cells per hippocampus (FACS)” value ([1]; 3×TgAD mice, 6-months-old, 21 days after 10 mg/kg) was 1372.5±326.2, the “surviving BrdU+ cells per hippocampus (FACS)” value ([1]; 3×TgAD mice, 9-months-old) was 899.3±313.1 and the BrdU cells ([1]; 3×TgAD mice, survived BrdU cells) was 1088. For the same compound, the “number of surviving cells generated 20 days prior to sacrifice” value ([1]; 3×TgAD mice, unbiased stereological analysis) was “near doubling in the number of surviving cells”, the “BrdU+ cell survival vs vehicle” value ([1]; 12-months-old non-tg and 3×TgAD mice) was “no significant effect” and the “BrdU positive cells, treatment vs vehicle” value ([1]; Non-Tg mice, 3, 6, 9, 12 month) was “did not show statistical significance between treatment and vehicle groups”. For the same compound, the “BrdU+ cell number 21 days after THP administration” value ([1]; all ages) was “an increase in BrdU+ cell number was observed at all ages”, the “surviving BrdU+ cells per hippocampus (FACS)” value ([1]; non-Tg mice, 6-months-old, 21 days after 10 mg/kg) was 2772.2±534.9 and the “surviving BrdU+ cells per hippocampus (FACS)” value ([1]; non-Tg mice, 9-months-old) was 2255.3±662.4. For the same compound, the “immunoreactivity of phosphorylated tau” value (phosphorylated tau; 10 mg/kg once a week for six months) was “decreases the immunoreactivity of phosphorylated tau”, the “AT8 immunoreactivity, immunoblotting” value (phosphorylated tau; [2]) was “did not show a significantly reduction of AT8 immunoreactivity” and the AT8 immunostaining (phosphorylated tau; [2]) was “lower levels of immunoreactivity in THP-treated hippocampal CA1, cortex and amygdala”. For the same compound, the “increase in 3H-thymidine uptake relative to control” value (hippocampal neural cells) was 80%.
